Experimental findings from patent US11045480B2, “Anti-huLRRC15 antibody drug conjugates and methods for their use” (AbbVie Inc., priority 2015, dated 2021) are described below.

For assay [1], the system named is EBC-1 (human squamous NSCLC) xenograft. In words: EBC-1 xenograft tumor growth. It counts as in vivo, mouse. The method, then:
For the experiments, five million cells (EBC-1) that were grown in vitro were inoculated subcutaneously per mouse into the right flank of female SCID-Beige mice. Tumors were size matched at ˜200 mm^3, and dosed intraperitoneally (IP) Q4D×6 (1 dose given every 4 days for a total of 6 doses) as shown in FIG. 13A. Measurements of the length (L) and width (W) of the tumors were taken via electronic caliper and the volume was calculated according to the following equation: V=L×W^2/2.
For this experiment, tumors were size matched at ˜200 mm^3, and dosed intraperitoneally (IP) Q7D×2 (1 dose given every 7 days for a total of 2 doses) as shown in FIG. 13C. […]
5 million cells were implanted subcutaneously into SCID/Beige mice, and mice were randomized when tumor group mean volumes reached ˜200 mm^3.
In FIG. 20C, EBC1 cells (5 million) were implanted subcutaneously into SCID/Beige mice and mice were randomized when the tumors reached ˜200 mm^3 and dosed with biologics at 6 mg/kg intraperitoneally on a Q7D×2 (one dose given every 7 days for a total of 2 doses), while erlotinib was dosed orally daily for 10 days at 50 mg/kg, and carboplatin was dosed intraperitoneally Q4D×3 (one dose given every 4 days for a total of 3 doses) at 50 mg/kg.
In FIG. 21B, EBC-1 squamous NSCLC cells (5 million) were implanted subcutaneously into SCID/Beige mice, and mice were randomized when the tumors reached ˜200 mm^3 and dosed with biologics at 6 mg/kg intraperitoneally on a Q7D×2 (one dose given every 7 days for a total of 2 doses), while gemcitabine was dosed intraperitoneally at 100 mg/kg (Q3D×3) (one dose given every three days for 3 doses total).

For assay [2], the system named is NCI-H1650 (NSCLC) xenograft. In words: NCI-H1650 xenograft tumor growth. It counts as in vivo, mouse. As to conditions: NCI-H1650, SCID/Beige mice; for TGD, single agent / TGImax, single agent: biologics 6 or 12 mg/kg IP Q4D×6, erlotinib 100 mg/kg orally daily ×10, carboplatin 50 mg/kg IP Q4D×4 (FIG. 20A, 22A). The protocol: The potency of anti-huLRRC15 ADCs as compared to current standards of care was assessed in xenograft models with NCI-H1650 ([…]), HN5 (head and neck), EBC-1 (squamous NSCLC), NW231 (breast) and PANC1 (pancreatic) cancer cells. […] For FIG. 20A, NCI-H1650 cells (5 million cells) were implanted subcutaneously into SCID/Beige mice and tumors were randomized when they reached ˜200 mm^3 and dosed with biologics at 6 or 12 mg/kg intraperitoneally on a Q4D×6 (one dose given every 4 days for a total of 6 doses), while erlotinib was dosed orally daily for 10 days at 100 mg/kg, and carboplatin was dosed intraperitoneally Q4D×4 (one dose given every 4 days for a total of 4 doses) at 50 mg/kg.
NCI-H1650 NSCLC cancer cells (5 million) were implanted subcutaneously into SCID/Beige mice, and mice were randomized when the tumors reached ˜200 mm^3 and dosed with biologics at 6 or 12 mg/kg intraperitoneally on a Q4D×6 (one dose given every 4 days for a total of 6 doses), while erlotinib was dosed orally daily at 100 mg/kg for 10 doses.
NCI-H1650 NSCLC cancer cells (5 million) were implanted subcutaneously into SCID/Beige mice, and mice were randomized when the tumors reached ˜200 mm^3 and dosed on day 0 with isotype or ADC at 0.1, 0.3, or 0.6 mg/kg intraperitoneally.
NCI-H1650 adeno NSCLC cells (5 million) were implanted subcutaneously into SCID/Beige mice, and mice were randomized when the tumors reached ˜225 mm^3 and dosed with ADC at 0.6 mg/kg or isotype antibody at 12 mg/kg intraperitoneally once on day 0.

In assay [3] the test system is SCC-15 head and neck cancer xenograft. The experiment in a line: SCC-15 xenograft tumor growth. Type of assay: in vivo, mouse. As to conditions: SCC-15, SCID mice; biologics 12 mg/kg IP Q7D×6; carboplatin 50 mg/kg IP Q4D×4 (FIG. 21E). The method, then:
Radiation is a commonly used cytotoxic therapy in oncology. […] SCC-15 head and neck cancer cells (1 million) were implanted subcutaneously into SCID mice, and mice were randomized when the tumors reached ˜200 mm^3 and dosed with biologics at 12 mg/kg intraperitoneally on a Q4D×6 (one dose given every 4 days for a total of 6 doses), while the radiation was directed at the tumor with a single radiation dose of 15 Gy on day 0.
SCC-15 head and neck cancer cells (1 million) were implanted subcutaneously into SCID mice, and mice were randomized when the tumors reached ˜200 mm^3 and dosed with biologics at 12 mg/kg intraperitoneally on a Q7D×6 (one dose given every 7 days for a total of 6 doses), while carboplatin was dosed intraperitoneally […] at 50 mg/kg Q4D×4 (one dose given every 4 days for a total of 4 doses).

The subject of assay [4] is EBC-1 (human squamous NSCLC) xenograft. The experiment in a line: EBC-1 xenograft tumor growth. As to conditions: EBC-1, SCID/Beige mice; huM25-vcMMAE-E2 at 3 mg/kg (method: biologics 6 mg/kg IP Q7D×2); method: gemcitabine 100 mg/kg IP Q3D×3, result sentence names docetaxel (FIG. 21B). It counts as in vivo, mouse.
Assay [5] relates to NW231 breast cancer xenograft. The experiment in a line: NW231 xenograft tumor growth. It counts as in vivo, mouse. As to conditions: NW231, SCID mice; biologics 12 mg/kg IP Q4D×6; doxorubicin 1 mg/kg IV days 0, 4, 8, 13, 18 (FIG. 20D). The protocol: In FIG. 20D, NW231 breast cancer cells (10 million) were implanted subcutaneously into SCID mice, and mice were randomized when the tumors reached ˜150 mm^3 and dosed with biologics at 12 mg/kg intraperitoneally on a Q4D×6 (one dose given every 4 days for a total of 6 doses), while doxorubicin was dosed intravenously at 1 mg/kg on days 0, 4, 8, 13 and 18.

The subject of assay [6] is HN5 (head and neck) xenograft. In words: HN5 xenograft tumor growth. It counts as in vivo, mouse. As to conditions: HN5, NSG mice; ADC 4.5 mg/kg IP Q4D×6; erlotinib 150 mg/kg orally daily ×10; cetuximab 3 mg/kg IP Q7D×3 (FIG. 20B).
In assay [7] the test system is HPAF-II (human pancreatic) xenograft. The experiment in a line: HPAF-II xenograft tumor growth. As to conditions: SCID mice, biologics 6 mg/kg IP Q4D×6, gemcitabine 100 mg/kg IP (Q3D×4)×2 (FIG. 21A). Type of assay: in vivo, mouse. The protocol:
For the experiment, 1 million cells (HPAF-II) that were grown in vitro were inoculated subcutaneously per mouse into the right flank of female SCID-Beige mice. Tumors were size matched at ˜200 mm^3, and dosed intraperitoneally (IP) Q4D×6 (1 dose given every 4 days for a total of 6 doses) as shown in FIG. 13B.
In FIG. 21A, HPAF-II pancreatic cancer cells (1 million) were implanted subcutaneously into SCID mice, and mice were randomized when the tumors reached ˜200 mm^3 and dosed with biologics at 6 mg/kg intraperitoneally on a Q4D×6 (one dose given every 4 days for a total of 6 doses), while gemcitabine was dosed intraperitoneally at 100 mg/kg (Q3D×4)×2 (one dose given every three days for 4 doses per cycle, 2 cycles with 8 total doses given).

In assay [8] the test system is PANC1 (pancreatic) xenograft. In words: PANC1 xenograft tumor growth. It counts as in vivo, mouse. As to conditions: PANC1, SCID mice; biologics 12 mg/kg IP Q4D×6; gemcitabine 100 mg/kg IP Q3D×4 (FIG. 20E). The method, then: In FIG. 20E, PANC1 pancreatic cancer cells (10 million) were implanted subcutaneously into SCID mice, and mice were randomized when the tumors reached ˜125 mm^3 and dosed with biologics at 12 mg/kg intraperitoneally on a Q4D×6 (one dose given every 4 days for a total of 6 doses), while gemcitabine was dosed intraperitoneally at 100 mg/kg Q3D×4) (one dose given every three days for 4 doses total).

In the next assay the test system is human BM-MSC (Lonza). The experiment in a line: In vitro cell killing of human mesenchymal stem cells with TGFβ. It counts as cell-based. As to conditions: human BM-MSC (Lonza) treated with 10 ng/mL TGFβ (FIG. 23B).
A further assay has as its target T1, huLRRC15 (Homo sapiens, UniProt Q8TF66).
T1 construct: endogenous in cells; host or cells: U118MG glioblastoma cells
T1 sequence (Q8TF66 22-581): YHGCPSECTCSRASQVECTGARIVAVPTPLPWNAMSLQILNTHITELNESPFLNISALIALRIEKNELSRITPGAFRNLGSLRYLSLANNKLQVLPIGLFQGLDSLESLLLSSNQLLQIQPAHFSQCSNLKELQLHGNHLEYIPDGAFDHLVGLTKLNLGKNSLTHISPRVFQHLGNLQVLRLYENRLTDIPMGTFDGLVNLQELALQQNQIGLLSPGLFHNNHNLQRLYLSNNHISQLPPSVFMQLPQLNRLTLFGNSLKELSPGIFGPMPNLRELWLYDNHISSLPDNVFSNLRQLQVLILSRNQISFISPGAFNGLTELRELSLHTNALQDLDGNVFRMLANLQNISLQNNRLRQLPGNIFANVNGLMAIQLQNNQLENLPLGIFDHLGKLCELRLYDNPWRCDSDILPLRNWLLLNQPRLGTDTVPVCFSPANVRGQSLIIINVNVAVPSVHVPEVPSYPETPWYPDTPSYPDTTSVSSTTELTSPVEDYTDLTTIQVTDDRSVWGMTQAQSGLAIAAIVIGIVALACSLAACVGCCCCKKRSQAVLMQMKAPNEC
The experiment in a line: Flow cytometry competition assay against labeled muM25 (muM25-AF488) on U118MG cells. Type of assay: binding. As to conditions: 1 μg/mL muM25-AF488, unlabeled test antibody 0.0001-100 μg/mL. The text has this:
Isotype control antibodies (human or mouse) were used as negative controls, and unlabeled muM25 was used as a positive control.
In this assay, competition due to a test antibody binding to the same or a proximal epitope as the labeled reference antibody reduce binding of the reference labeled antibody.

Where [9] appears, read: EBC1, SCID/Beige mice, biologics 6 mg/kg IP Q7D×2, erlotinib 50 mg/kg orally daily ×10, carboplatin 50 mg/kg IP Q4D×3 (FIG. 20C).
Where [10] appears, read: EBC-1, SCID/Beige mice, biologics 3 or 6 mg/kg IP Q4D×6, method: docetaxel 7.5 mg/kg IV, result sentence names gemcitabine (FIG. 21C).
[11] abbreviates: EBC-1, SCID mice, 0.6 mg/kg Q7D×2 (FIG. 24H).
[12] abbreviates: 0.6 mg/kg IP once on day 0 (FIG. 24G).

Consider `N.N.O=C([O-])C1(C(=O)[O-])CCC1.[Pt+2]` [carboplatin, reference compound], for which, in assay [1] (setting [9]), the TGD is given as 43% and the TGImax is on record as 39%. Also, in [2], the “TGD, single agent” value is 77% and the “TGImax, single agent” value was found to be 56%. In assay [3], the “TGD, single agent” value came out at 33% and the “TGImax, single agent” value is 56%.

`CC(=O)O[C@@]12CO[C@@H]1C[C@H](O)[C@@]1(C)C(=O)[C@H](O)C3=C(C)[C@@H](OC(=O)[C@H](O)[C@@H](NC(=O)OC(C)(C)C)c4ccccc4)C[C@@](O)([C@@H](OC(=O)c4ccccc4)[C@H]21)C3(C)C` [docetaxel, reference compound]: the “TGD, single agent” value in [1] (EBC-1, SCID/Beige mice, huM25-vcMMAE-E2 at 3 mg/kg (method: biologics 6 mg/kg IP Q7D×2), method: gemcitabine 100 mg/kg IP Q3D×3, result sentence names docetaxel (FIG. 21B)) worked out at 48%. Moreover, the “TGImax, single agent” value in [4] turned out to be 77%.

With `COc1cccc2c1C(=O)c1c(O)c3c(c(O)c1C2=O)C[C@@](O)(C(=O)CO)C[C@@H]3O[C@H]1C[C@H](N)[C@H](O)[C@H](C)O1` [doxorubicin, reference compound], in assay [5], the TGImax was found to be 65%.

In assay [1] (setting [9]), `C#Cc1cccc(Nc2ncnc3cc(OCCOC)c(OCCOC)cc23)c1` [erlotinib, reference compound] came in with a TGD of 14% and a TGImax of 27%. Moreover, in [2], the “TGD, single agent” value was 77% and the “TGImax, single agent” value stood at 90%. Further, in assay [6], the TGD is 12% and the TGImax amounted to 23%.

With `Nc1ccn([C@@H]2O[C@H](CO)[C@@H](O)C2(F)F)c(=O)n1` [gemcitabine, reference compound], the “TGD, single agent” value amounted to 171% in assay [1] (setting [10]) and 117% in [7]. In addition, the “TGImax, single agent” value turned out to be 95% in [1] (setting [10]) and 73% in [7]. This molecule returned a TGImax in assay [8] of 55%.

B1: huAD208.4.1-PBD-DAR2: PBD synthon vaPBD conjugated with anti-huLRRC15 antibody huAD208.4.1 to yield a DAR of 2 (conjugate)
VH: EVQLVQSGAEVKKPGSSVKVSCKASGFTFTDYYIHWVKQAPGQGLEWIGLVYPYIGGTNYNQKFKGKATLTVDTSTTTAYMEMSSLRSEDTAVYYCARGDNKYDAMDYWGQGTTVTVSS
VL: DIVLTQSPDSLAVSLGERATINCRASQSVSTSSYSYMHWYQQKPGQPPKLLIKYASSLESGVPDRFSGSGSGTDFTLTISSLQAEDVAVYYCEQSWEIRTFGGGTKVEIK
Take B1: in [1] (setting [11]), the TGD is recorded as > 600% and the TGImax is listed as 91%. Further, in assay [2] (setting [12]), the TGD is > 388% and the TGImax is listed as 95%. Besides, the “cell killing effect relative to isotype-PBD-DAR2 at the same doses” value in the assay on human BM-MSC (Lonza) is recorded as “higher cell killing effect”.

B2: muAD209.9.1: murine anti-huLRRC15 antibody; VH SEQ ID NO:76, VL SEQ ID NO:77 (antibody, V domains shown)
VH: QIQLVQSGPELKKPGETVKISCKASGFAITNFGMNWVKQAPGKGLKWMGWINLYTGEPTFADDFKGRFAFSLETSASTAYLQINNLKNEDTVIYFCARKGETYYRYDGFAYWGQGTLVTVSA
VL: DIVMTQAAPSVPVTPGESVSISCRSSKSLLHSNGNTHLYWFLQRPGQSPQLLIYRMSNLASGVPDRFSGSGSGTAFTLRISRVEAEDVGVYYCMQLLEYPYTFGGGTKLEIE
In the case of B2, in the assay with huLRRC15, the “competition with labeled muM25 for binding cells expressing huLRRC15” value is “do not inhibit”.
